Laboratory results taken from patent US20220267310A1, “QUINAZOLINE AND CINNOLINE DERIVATIVES AS DNA-PK INHIBITOR” (MEDSHINE DISCOVERY INC., priority 2019, published 2022).
Values joined by “and” are separate entries in the source; they are usually repeats but may differ in a detail not shown here. Equal entries are not always repeated.

Key:
[1] = target: T1, PI3K (p110α/p85α) (Homo sapiens, UniProt P42336); experiment: PI3K (p110α/p85α) kinase inhibitory activity (HTRF); type: biochemical
T1 construct: Eurofins Pharma Discovery Service (contract assay)
T1 sequence (P42336 whole entry, species assumed): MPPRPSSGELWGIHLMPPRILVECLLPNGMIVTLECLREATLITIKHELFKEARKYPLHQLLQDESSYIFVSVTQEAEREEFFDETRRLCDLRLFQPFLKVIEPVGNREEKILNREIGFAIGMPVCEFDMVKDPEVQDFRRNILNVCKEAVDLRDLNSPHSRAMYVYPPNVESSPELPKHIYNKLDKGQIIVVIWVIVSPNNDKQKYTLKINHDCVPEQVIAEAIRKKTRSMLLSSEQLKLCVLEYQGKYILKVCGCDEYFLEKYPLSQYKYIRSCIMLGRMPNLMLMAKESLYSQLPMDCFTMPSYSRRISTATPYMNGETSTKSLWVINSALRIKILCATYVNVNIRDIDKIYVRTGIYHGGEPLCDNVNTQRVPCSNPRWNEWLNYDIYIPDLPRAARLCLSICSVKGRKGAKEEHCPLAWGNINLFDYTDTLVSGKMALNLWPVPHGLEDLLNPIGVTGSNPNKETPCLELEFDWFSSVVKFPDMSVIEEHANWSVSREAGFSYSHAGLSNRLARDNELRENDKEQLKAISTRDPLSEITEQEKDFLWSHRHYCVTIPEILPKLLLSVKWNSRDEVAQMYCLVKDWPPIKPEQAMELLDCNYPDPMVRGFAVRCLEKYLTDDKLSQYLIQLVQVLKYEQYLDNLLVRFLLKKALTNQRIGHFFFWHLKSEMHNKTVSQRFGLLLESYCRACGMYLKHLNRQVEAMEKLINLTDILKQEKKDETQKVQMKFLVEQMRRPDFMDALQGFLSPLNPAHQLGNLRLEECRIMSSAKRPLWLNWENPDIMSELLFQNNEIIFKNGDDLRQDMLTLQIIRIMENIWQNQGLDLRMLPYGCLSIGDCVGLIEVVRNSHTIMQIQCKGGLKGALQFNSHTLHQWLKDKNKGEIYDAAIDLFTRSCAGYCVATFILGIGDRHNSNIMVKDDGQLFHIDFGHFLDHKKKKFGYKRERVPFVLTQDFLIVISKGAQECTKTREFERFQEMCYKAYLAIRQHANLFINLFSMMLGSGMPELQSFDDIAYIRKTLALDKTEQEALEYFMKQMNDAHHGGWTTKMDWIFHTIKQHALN
T1 sequence (P27986 whole entry partner, species assumed): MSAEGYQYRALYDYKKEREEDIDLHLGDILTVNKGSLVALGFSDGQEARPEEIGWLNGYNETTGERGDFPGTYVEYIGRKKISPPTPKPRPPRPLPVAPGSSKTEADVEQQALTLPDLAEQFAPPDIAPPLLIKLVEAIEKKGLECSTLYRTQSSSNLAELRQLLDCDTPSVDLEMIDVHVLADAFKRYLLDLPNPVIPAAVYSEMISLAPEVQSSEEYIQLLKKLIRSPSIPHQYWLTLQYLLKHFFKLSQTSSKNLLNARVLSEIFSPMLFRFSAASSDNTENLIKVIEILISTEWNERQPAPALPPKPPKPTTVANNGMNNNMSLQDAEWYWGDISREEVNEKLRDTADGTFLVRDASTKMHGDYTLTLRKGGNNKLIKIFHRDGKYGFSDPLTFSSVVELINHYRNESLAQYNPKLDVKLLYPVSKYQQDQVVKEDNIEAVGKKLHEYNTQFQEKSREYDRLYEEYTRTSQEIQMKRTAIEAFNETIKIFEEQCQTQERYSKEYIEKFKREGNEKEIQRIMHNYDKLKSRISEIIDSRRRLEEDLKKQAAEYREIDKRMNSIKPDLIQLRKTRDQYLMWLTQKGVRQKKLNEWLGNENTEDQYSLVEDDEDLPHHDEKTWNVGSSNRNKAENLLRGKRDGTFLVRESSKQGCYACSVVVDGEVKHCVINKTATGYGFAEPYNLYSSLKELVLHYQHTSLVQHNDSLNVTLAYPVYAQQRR
Description: This experiment was tested at Eurofins Pharma Discovery Service, Reaction Biology Corp. (RBC)
[…] DNA-PK: Mg/ATP; GST-cMyc-p53; EDTA; Ser15 antibody; ATP: 10 μM; biotinylated phosphatidylinositol-3,4,5-triphosphate; GST label GRP1 PH domain; streptavidin and phycocyanin; europium-labelled monoclonal antibody against GST.
PI3K (p110α/p85α) was incubated in a determination buffer containing phosphatidylinositol 4,5-diphosphate and Mg/ATP (density as required). The reaction was initiated by adding an ATP solution. After incubating at room temperature for 30 min, a termination solution containing EDTA and biotinylated phosphatidylinositol-3,4,5-triphosphate was added to terminate the reaction. Finally, a detection buffer (containing labeled anti-GST monoclonal antibody, PH domain of GRP1 with GST label and streptavidin and phycyanin and […]) was added. Then, the board was read in time-resolved fluorescence mode, and an HTRF signal was measured according to the formula HTRF=10000×(Em665 nm/Em620 nm).

[2] = system: human small cell lung cancer NCI-H69 xenograft tumor model; experiment: NCI-H69 xenograft, mono and combination with etoposide, 24-day experiment (Table 8); type: in vivo, BALB/c nude mice; conditions: for Tumor volume (mm^3) (0th day) / Tumor volume (mm^3) (24th day): average ± SEM, n = 9
Description: (§1) Experiment example 3: in vivo pharmacodynamics of human small cell lung cancer NCI-H69 cell subcutaneous xenograft tumor BALB/c nude mouse model:
(§2) Experimental animals: Female BALB/c nude mice, 6-8 weeks old, weighing 15-22 grams; supplier: Shanghai Linchang Biotechnology Co., LTD. (Linchang, Shanghai)
(§3) Human small cell lung cancer NCI-H69 cells (ATCC, item number: HTB-119 and ECACC-95111733) were cultured in vitro in a culture condition of RPMI-1640 medium with 10% fetal bovine serum, 100 U/mL penicillin and 100 μg/mL streptomycin, incubated at 37° C. and 5% CO2. Conventional passage was carried out twice a week. When cell saturation was 80%-90% and the number reaches the requirement, cells were collected, counted and inoculated.
(§4) 0.2 mL (10×10^6) NCI-H69 cells (with matrix glue, and volume ratio of 1:1) were subcutaneously inoculated into a right back of each mouse, and group administration was initiated when the average tumor volume reaches about 110-120 mm^3.
(§5) The tested compound was prepared as a 5 mg/mL clarified solution with 10% DMSO+50% polyethylene glycol 400+40% water as the solvent.
(§6) The experimental indicators refers to study whether tumor growth was inhibited, delayed, or cured. Tumor diameter was measured twice a week with a vernier caliper. The calculation formula of the tumor volume was V=0.5a×b^2, and a and b represent the long diameter and short diameter of the tumor, respectively.
(§7) The antitumor efficacy of the compound was evaluated by TGI (%) or relative tumor proliferation rate T/C (%). TGI (%) reflects the tumor growth inhibition rate. The calculation of TGI (%): TGI (%)=[1−(average tumor volume at the end of administration of a certain treatment group−average tumor volume at the beginning of administration of the treatment group)/(average tumor volume at the end of treatment in solvent control group−average tumor volume at the beginning of treatment in solvent control group)]×control group.
(§8) Relative tumor proliferation rate T/C (%): the calculation formula was as follows: T/C %=[…] TRTV/CRTV group (TRTV: treatment group RTV; CRTV: negative control group RTV). According to results of tumor measurement, Relative Tumor Volume (RTV) was calculated by the formula RTV=Vt/V0, where V0 was the average tumor volume measured in group administration (i.e., d0), and Vt was the average tumor volume measured in a certain single measurement. TRTV and CRTV collect data on the same day.
(§9) Statistic analysis includes an average value and a standard error (SEM) of tumor volume at each time point for each group. […] If there was no significant difference in F value, Dunnet (2-sided) method was applied to analysis. All data were analyzed using SPSS 17.0. P<0.05 was considered as having a significant difference.

[3] = system: human small cell lung cancer NCI-H69 cell subcutaneous xenograft tumor; experiment: NCI-H69 subcutaneous xenograft, combination with etoposide, 22-day experiment (Table 7); type: in vivo, BALB/c nude mice; conditions: for T/C (%) / TGI (%): 22nd day; for Tumor volume (mm^3) (0th day) / Tumor volume (mm^3) (22th day): average ± SEM
Description: as §1, §2, §3, §4, §5, §6, §7, §8, §9

[4] = target: T2, PI3K (p110σ/p85α) (Homo sapiens, UniProt O00329); experiment: PI3K (p110σ/p85α) kinase inhibitory activity (HTRF); type: biochemical
T2 construct: Eurofins Pharma Discovery Service (contract assay)
T2 sequence (O00329 whole entry): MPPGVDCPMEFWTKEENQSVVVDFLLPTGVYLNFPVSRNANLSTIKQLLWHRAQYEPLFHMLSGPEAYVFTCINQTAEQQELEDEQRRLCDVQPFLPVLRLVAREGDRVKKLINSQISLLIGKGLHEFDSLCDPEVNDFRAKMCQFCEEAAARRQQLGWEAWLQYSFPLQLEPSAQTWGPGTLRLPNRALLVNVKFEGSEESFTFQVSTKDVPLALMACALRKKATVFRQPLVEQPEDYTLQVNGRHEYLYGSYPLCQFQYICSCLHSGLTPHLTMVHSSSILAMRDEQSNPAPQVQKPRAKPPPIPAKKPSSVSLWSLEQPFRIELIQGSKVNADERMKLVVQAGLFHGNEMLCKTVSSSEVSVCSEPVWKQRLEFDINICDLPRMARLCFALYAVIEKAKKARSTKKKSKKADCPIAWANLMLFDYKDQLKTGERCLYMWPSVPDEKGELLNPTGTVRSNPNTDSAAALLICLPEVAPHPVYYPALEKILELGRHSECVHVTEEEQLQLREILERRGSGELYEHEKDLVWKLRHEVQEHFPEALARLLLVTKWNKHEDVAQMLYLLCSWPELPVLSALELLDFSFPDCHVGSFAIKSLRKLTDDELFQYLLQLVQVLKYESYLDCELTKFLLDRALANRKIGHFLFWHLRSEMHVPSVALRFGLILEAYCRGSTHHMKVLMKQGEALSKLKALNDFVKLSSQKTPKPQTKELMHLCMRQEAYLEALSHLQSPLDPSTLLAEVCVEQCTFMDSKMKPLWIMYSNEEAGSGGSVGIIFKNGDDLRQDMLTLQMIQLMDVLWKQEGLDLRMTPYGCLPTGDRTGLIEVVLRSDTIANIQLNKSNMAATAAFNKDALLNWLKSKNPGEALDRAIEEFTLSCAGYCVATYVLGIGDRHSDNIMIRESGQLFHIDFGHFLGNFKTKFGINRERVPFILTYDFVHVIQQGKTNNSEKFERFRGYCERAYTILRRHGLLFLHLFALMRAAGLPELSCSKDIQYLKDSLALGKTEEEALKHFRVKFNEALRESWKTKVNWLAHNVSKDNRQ
T2 sequence (P27986 whole entry partner): as the sequence (P27986 whole entry partner, species assumed) above

[5] = 10 mg/kg, BID + etoposide 10 mg/kg, IP
[6] = 20 mg/kg, QD + etoposide 10 mg/kg, IP
[7] = 40 mg/kg, PO, BID + etoposide 10 mg/kg, IP
[8] = 40 mg/kg, PO, QD + etoposide 10 mg/kg, IP
[9] = 40 mg/kg, PO, QD + etoposide 10 mg/kg, IP, 3-day administration, 4-day withdrawal
[10] = 40 mg/kg group (+ etoposide 10 mg/kg, IP)
[11] = second Embodiment 19 group of Table 7, 40 mg/kg, PO, QD + etoposide 10 mg/kg, IP

Structure (SMILES): COc1ccc(C(O)c2cc(-c3cnnc4c(F)c(N5CCOCC5)cc(F)c34)c(F)cc2Cl)nn1 (single isomer, unassigned) [Embodiment 19]
- IC50 [1]: 483 nM
- RTV (24th day) [2, 5]: 4.93 ± 0.42
- T/C (%) (24th day) [2, 5]: 61.2%
- TGI (%) (24th day) [2, 5]: 46.5%
- Tumor volume (mm^3) (0th day) ([2]; 10 mg/kg, BID + etoposide 10 mg/kg, IP, 3-day administration, 4-day withdrawal): 114 ± 9 mm^3
- Tumor volume (mm^3) (24th day) [2, 5]: 548 ± 44 mm^3
- RTV (24th day) [2, 6]: 4.08 ± 032
- T/C (%) (24th day) [2, 6]: 50.6%
- TGI (%) (24th day) [2, 6]: 56.8%
- Tumor volume (mm^3) (0th day) ([2]; 20 mg/kg, QD + etoposide 10 mg/kg, IP, 3-day administration, 4-day withdrawal): 114 ± 7 mm^3
- Tumor volume (mm^3) (24th day) [2, 6]: 464 ± 41 mm^3
- RTV (24th day) ([2]; 40 mg/kg, BID, alone): 6.91 ± 0.18
- T/C (%) (24th day) ([2]; 40 mg/kg, BID, alone): 85.8%
- TGI (%) (24th day) ([2]; 40 mg/kg, BID, alone): 16.8%
- Tumor volume (mm^3) (0th day) ([2]; 40 mg/kg, BID, alone): 114 ± 7 mm^3
- Tumor volume (mm^3) (24th day) ([2]; 40 mg/kg, BID, alone): 789 ± 49 mm^3
- RTV (24th day) [2, 7]: 2.28 ± 0.26
- T/C (%) (24th day) [2, 7]: 28.4%
- TGI (%) (24th day) [2, 7]: 81.5%
- Tumor volume (mm^3) (0th day) ([2]; 40 mg/kg, PO, BID + etoposide 10 mg/kg, IP, 3-day administration, 4-day withdrawal): 114 ± 10 mm^3
- Tumor volume (mm^3) (24th day) [2, 7]: 264 ± 37 mm^3
- RTV (24th day) [2, 8]: 3.11 ± 0.18
- T/C (%) (24th day) [2, 8]: 38.6%
- TGI (%) (24th day) [2, 8]: 70.5%
- Tumor volume (mm^3) (0th day) [2, 9]: 114 ± 7 mm^3
- Tumor volume (mm^3) (24th day) [2, 8]: 353 ± 33 mm^3
- Weight changes [3, 10]: −5.88%
- RTV (22th day) [3, 9]: 3.73
- T/C (%) [3, 9]: 43.34%
- TGI (%) [3, 9]: 64% and 63.98%
- Tumor volume (mm^3) (0th day) [3, 9]: 119 ± 12 mm^3
- Tumor volume (mm^3) (22th day) [3, 9]: 444 ± 34 mm^3
- Weight changes ([3]; 80 mg/kg group (+ etoposide 10 mg/kg, IP)): 0.13%
- TGI ([3]; 80 mg/kg, PO, QD + etoposide 10 mg/kg, IP, 3-day administration, 4-day withdrawal): 80%
- RTV (22th day) [3, 11]: 2.51
- Tumor volume (mm^3) (0th day) ([3]; second Embodiment 19 group of Table 7, 40 mg/kg, PO, QD + etoposide 10 mg/kg, IP, 3-day administration, 4-day withdrawal): 119 ± 12 mm^3
- T/C (%) [3, 11]: 29.20%
- TGI (%) [3, 11]: 80.09%
- Tumor volume (mm^3) (22th day) [3, 11]: 299 ± 31 mm^3
- IC50 [4]: 600 nM

Structure (SMILES): COc1ccc([C@@H](O)c2cc(-c3nncc4cc(N5CCOCC5)ccc34)c(F)cc2Cl)nn1 [Embodiment M3814, reference compound]
- IC50 [1]: 42 nM
- RTV (24th day) [2, 8]: 3.47 ± 0.24
- T/C (%) (24th day) [2, 8]: 43.1%
- TGI (%) (24th day) [2, 8]: 66.1%
- Tumor volume (mm^3) (0th day) [2, 9]: 114 ± 8 mm^3
- Tumor volume (mm^3) (24th day) [2, 8]: 389 ± 28 mm^3
- RTV (24th day) ([2]; 40 mg/kg, QD, alone): 6.77 + 0.45
- T/C (%) (24th day) ([2]; 40 mg/kg, QD, alone): 84.1%
- TGI (%) (24th day) ([2]; 40 mg/kg, QD, alone): 19.8%
- Tumor volume (mm^3) (0th day) ([2]; 40 mg/kg, QD, alone): 114 ± 8 mm^3
- Tumor volume (mm^3) (24th day) ([2]; 40 mg/kg, QD, alone): 764 ± 59 mm^3
- Weight changes [3, 10]: −16.00%
- RTV (22th day) [3, 9]: 2.96
- T/C (%) [3, 9]: 34.40%
- TGI (%) [3, 9]: 74% and 74.21%
- Tumor volume (mm^3) (0th day) [3, 9]: 119 ± 13 mm^3
- Tumor volume (mm^3) (22th day) [3, 9]: 352 ± 26 mm^3
- IC50 [4]: 14 nM
